A short description of data set [1]: Thermal stability of aqueous solution kept at 50° C., HPLC. Type of data set: physicochemical. As to conditions: 0.5% (w/v) aqueous solution, 50° C. for 90 days. How it is done:
A 0.5% (w/v) aqueous solution of pyridoxine 3-β-D-glucoside (pH 6.7) in a volume of 0.3 ml was sealed in a 1-ml volume glass ampoule, and kept at 50° C. under light shielding. The sample was warmed for 90 days, and analyzed during the warming by HPLC (analysis conditions were the same as those applied in Test Example 1) to measure a pyridoxine 3-β-D-glucoside content. A solution of pyridoxine hydrochloride of the same concentration (adjusted to pH 6.7) was treated in the same manner, and the results were compared.
Aqueous solutions (0.5% (w/v)) of pyridoxine 3-β-D-glucoside hydrochloride, pyridoxal 3-β-D-glucoside, pyridoxamine 3-β-D-glucoside, pyridoxine 3-β-D-galactoside, pyridoxine hydrochloride, pyridoxal hydrochloride, and pyridoxamine hydrochloride (adjusted to pH 6.3 to 7.2 with HCl or NaOH) were each sealed in a volume of 0.3 ml in a 1-ml volume glass ampoule, […] in the same manner as in Test Example 2.
0.5% (w/v) Aqueous solutions of pyridoxine 3,4′-cyclic sodium phosphate and pyridoxine hydrochloride (adjusted to pH 6.5 to 6.8) were each sealed in a volume of 0.3 ml in a 1-ml volume glass ampoule, and warming at 50° C. and HPLC analysis were performed in the same manner as in Test Example 2.

Data set [2] in a line: Light stability in an eye lotion. Type of data set: physicochemical. How it is done:
Neostigmine methylsulfate (5 mg), potassium L-aspartate (0.4 g), boric acid (5 mg), sodium borate (5 mg), methyl paraoxybenzoate (10 mg), chlorobutanol (0.1 g), and vitamin B6 derivative (0.1 g) were dissolved in sterilized purified water (70 ml). After dissolution, the solution was made into a volume of 100 ml with sterilized purified water to prepare an eye lotion. In this preparation, precipitates and the like were not observed. The prepared eye lotion in a volume of 6 ml was put into a glass bottle, and exposed to light of a D65 fluorescent lamp at a total illumination of 0, 60,000, 180,000, or 300,000 lux·hr, and then the vitamin B6 derivative was quantified by the HPLC method in the same manner as in Test Example 11 mentioned above.

A short description of data set [3]: Test for change in formulation: aqueous solution with calcium pantothenate. The data set is classed as physicochemical. Conditions: aqueous solution 0.1 g + 0.1 g calcium pantothenate per 100 ml, 40° C., one month. The method, then: Calcium pantothenate (0.1 g) and a vitamin B6 derivative (0.1 g) were dissolved in purified water and made 100 ml to prepare a sample for stability test in the form of a solution. The sample filled in a sealed glass bottle was stored at 40° C. Appearance of the sample was examined by visual inspection after 0 day, 14 days, and one month, and the vitamin B6 derivative and calcium pantothenate were quantified by the HPLC method in the same manner as in Test Example 11 mentioned above, provided that the detection wavelength for calcium pantothenate was 210 nm.

Data set [4] is classed as physicochemical. Conditions: 0.5% (w/v) aqueous solution, D65 fluorescent lamp 13,000 Lx. How it is done: A 0.5% (w/v) aqueous solution of pyridoxine 3-β-D-glucoside (pH 6.7) in a volume of 0.3 ml was enclosed in a 1-ml volume glass ampoule, and irradiated with a D65 fluorescent lamp (Toshiba) for 14 days. The irradiation was performed at room temperature with an illumination of 13,000 Lx. Samples before the irradiation and after 1 day, 7 days and 14 days of the irradiation were analyzed by HPLC to measure a pyridoxine 3-β-D-glucoside content. A solution of pyridoxine hydrochloride of the same concentration (adjusted to pH 6.7) was treated in the same manner, and the results were compared. The HPLC measurement conditions were as follows.
Column: Inertsil ODS-3 ([…], ([…], φ4.6×150 mm, GL Science Inc.)
Eluent acetonitrile:0.1% (v/v) trifluoroacetic acid, 5 mM sodium 1-hexanesulfonate=1:9
Column temperature: 40° C.
Aqueous solutions (0.5% (w/v)) of pyridoxine 3-β-D-glucoside hydrochloride, pyridoxal 3-β-D-glucoside, pyridoxamine 3-β-D-glucoside, pyridoxine 3-β-D-galactoside, and pyridoxine hydrochloride (adjusted to pH 6.3 to 7.2 with HCl or NaOH) were each sealed in a volume of 0.3 ml in a 1-ml volume glass ampoule, and light irradiation and HPLC quantification were performed in the same manner as in Test Example 1. […] Test Example 4 (thermal stability of pyridoxine 3-β-D-glucoside hydrochloride and various 3-glycosides) […]

Data set [5] is described as follows: Light stability in a shampoo. Type of data set: physicochemical. The method, then: Sodium coconut oil fatty acid methyltaurine (10.0 g), polyoxyethylene alkyl ether sodium sulfate (20.0 g), lauryl dimethylaminoacetate betaine (10.0 g), coconut oil fatty acid diethanolamide (4.0 g), propylene glycol (2.0 g), vitamin B6 derivative (0.1 g), and methyl paraoxybenzoate (0.01 g) were added to purified water (40 ml), and warmed to 70° C. for dissolution. The solution was cooled to a temperature below 35° C., and then adjusted to pH 6.8 with 10% aqueous citric acid, and made into a volume of 100 ml with purified water to prepare a shampoo. In this preparation, precipitates and the like were not observed. The prepared shampoo in a volume of 6 ml was filled in a glass bottle, and exposed to light of a D65 fluorescent lamp at a total illumination of 0, 60,000, 180,000, or 300,000 lux·hr, and then the vitamin B6 derivative was quantified. The same sample was separately stored at 50° C., and after 0 day, 14 days, one month, and two months, the vitamin B6 derivative was quantified by the HPLC method in the same manner as in Test Example 11 mentioned above.

For the compound `Cc1ncc(CO)c(CO)c1O.Cl` [pyridoxine hydrochloride], in data set [1], the “coloring of the aqueous solution after the warming” value was “colored in yellow”. Moreover, the “remained substance in eye lotion after irradiation” value was 68% in data set [2] (D65 fluorescent lamp, 180,000 lux·hr for 3 days) and 49% in data set [2] (D65 fluorescent lamp, 300,000 lux·hr for 5 days). Besides, the “remained calcium pantothenate in the formulation with the substance” value in data set [3] was 83%. In addition, the “coloring of the aqueous solution after the light irradiation” value in data set [4] is “colored in pale yellow”. Further, the “remained substance in shampoo after irradiation” value in data set [5] (shampoo pH 6.8, D65 fluorescent lamp, 180,000 lux·hr for 3 days) was 60%; in data set [5] (shampoo pH 6.8, D65 fluorescent lamp, 300,000 lux·hr for 5 days) it was 58%.

Values taken from patent US8003615B2, “Stable vitamin B6 derivative” (Daiichi Fine Chemical Co., Ltd., priority 2003, dated 2011).
